# Experimental data published in ChEMBL document CHEMBL4431381 (Bioorg Med Chem, 2016).
# Activity calls are given as the source filed them. The rule behind the calls is not given here.
# Legend:
# [1] = Hydrophilicity, logD of the compound; format: physicochemical; conditions: octanol/water
# Mus musculus = species on record: Mus musculus; experiment: Effect on carbachol-mediated persistant firing of entorhinal cortex in p75NTR deficient C57BL/6 mouse brain at 10 nM after 15 mins by current-clamp technique; format: functional
# [2] = biological target: T1, Tumor necrosis factor receptor superfamily member 16 (Rattus norvegicus) (UniProt P07174); experiment: Binding affinity to p75NTR in Long-Evans rat brain at 300 uCi incubated for 40 mins followed by compound wash out for 10 secs and addition of compound for 2 hrs by autoradiographic analysis; format: tissue-based; conditions: tested as the 11C-labelled form
# T1 sequence (whole entry): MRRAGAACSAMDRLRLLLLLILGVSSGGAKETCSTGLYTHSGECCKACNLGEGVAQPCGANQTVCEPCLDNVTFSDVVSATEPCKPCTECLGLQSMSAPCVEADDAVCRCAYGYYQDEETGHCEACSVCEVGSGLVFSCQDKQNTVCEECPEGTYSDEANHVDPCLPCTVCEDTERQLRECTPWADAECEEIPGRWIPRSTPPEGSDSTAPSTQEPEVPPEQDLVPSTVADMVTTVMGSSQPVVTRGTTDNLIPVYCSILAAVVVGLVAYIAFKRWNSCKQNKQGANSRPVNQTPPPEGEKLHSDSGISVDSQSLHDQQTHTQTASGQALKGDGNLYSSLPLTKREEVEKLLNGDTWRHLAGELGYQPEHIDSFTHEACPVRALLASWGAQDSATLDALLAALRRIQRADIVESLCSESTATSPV
# [3] = biological target: T2, Tumor necrosis factor receptor superfamily member 16 (Mus musculus) (UniProt Q9Z0W1); experiment: (§1) Activation of p75NTR in C57BL/6 mouse brain assessed as suppression of carbachol-mediated persistant firing of entorhinal cortex after 15 mins by current-clamp technique; format: tissue-based
# T2 sequence (whole entry): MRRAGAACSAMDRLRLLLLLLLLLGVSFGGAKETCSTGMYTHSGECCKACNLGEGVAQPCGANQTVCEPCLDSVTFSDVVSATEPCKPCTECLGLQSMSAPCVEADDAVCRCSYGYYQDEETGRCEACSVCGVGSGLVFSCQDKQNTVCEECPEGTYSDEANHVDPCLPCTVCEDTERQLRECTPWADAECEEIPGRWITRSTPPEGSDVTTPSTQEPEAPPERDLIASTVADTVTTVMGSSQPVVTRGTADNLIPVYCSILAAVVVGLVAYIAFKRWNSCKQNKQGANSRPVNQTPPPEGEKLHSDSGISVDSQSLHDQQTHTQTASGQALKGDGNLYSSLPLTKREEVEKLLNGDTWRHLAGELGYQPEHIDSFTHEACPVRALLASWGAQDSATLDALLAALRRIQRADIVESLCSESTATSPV
# [4] = biological target: T3, Tumor necrosis factor receptor superfamily member 16 (Mus musculus, UniProt Q9Z0W1); experiment: as §1; format: tissue-based
# T3 sequence (Q9Z0W1 whole entry): T2 sequence (whole entry)
# [5] = Drug uptake in Long-Evans rat brain at 0.4 mCi, iv through bolus administration by PET analysis; format: ADME, organism-based; conditions: in vivo
# [6] = Drug uptake in C57BL/6 mouse DRG neurons incubated for 40 mins measured after 30 to 60 mins by autoradiographic analysis; format: ADME, cell-based; conditions: drg neuron
# [7] = Drug uptake in C57BL/6 mouse brain incubated for 40 mins followed by compound wash out for 10 secs and addition of compound for 30 to 60 mins in presence of 10 uM LM11A-24 by autoradiographic analysis; format: ADME, tissue-based
# [8] = Drug uptake in C57BL/6 mouse brain incubated for 40 mins followed by compound wash out for 10 secs and addition of compound for 30 to 60 mins by autoradiographic analysis; format: ADME, tissue-based
# [9] = Drug uptake in C57BL/6 mouse brain incubated for 40 mins followed by compound wash out for 10 secs and addition of compound for 30 to 60 mins in presence of 400 uM LM11A-24 by autoradiographic analysis; format: ADME, tissue-based
# [10] = Drug uptake in C57BL/6 mouse DRG neurons incubated for 40 mins followed by compound wash out for 10 secs and addition of compound for 30 to 60 mins by autoradiographic analysis; format: ADME, cell-based; conditions: drg neuron
# [11] = Drug uptake in Long-Evans rat bladder at 0.4 mCi, iv through bolus administration by PET analysis; format: ADME, organism-based, Urinary bladder; conditions: in vivo
logD [1],Drug uptake [5],Drug uptake [6],Drug uptake [7],Drug uptake [8],Drug uptake [9],Drug uptake [10],Drug uptake [11],Compound,Activity (Mus musculus),Activity [2],Activity [3],EC50 [4]
-3,,,,,,,,CN(C)CCCNC(=O)Cn1cnc2c1c(=O)n(C)c(=O)n2C,inactive,inactive,Dose-dependent effect,< 10 nM
,Not Active,Not Active,Active,Active,Active,Not Active,Active,CN([11CH3])CCCNC(=O)Cn1cnc2c1c(=O)n(C)c(=O)n2C,,,,
